Here are results for three compounds from patent US20240293404A1, “SALT AND CRYSTAL FORMS OF AN EPIDERMAL GROWTH FACTOR RECEPTOR INHIBITOR” (Blueprint Medicines Corporation, priority 2021, published 2024).

A short description of series [1]: Dynamic Vapor Sorption (DVS). It is filed as physicochemical. The note with it: between 2 and 95% relative humidity at 25° C. On the procedure:
DVS was performed using a DVS Intrinsic 1. The sample (5-25 mg) was loaded into a sample pan, suspended from a microbalance and exposed to a humidified stream of nitrogen gas. The sample was held for a minimum of 5 min at each level and only progressed to the next humidity level if there was <0.002% change in weight between measurements (interval: 60 s) or 60 min had elapsed. The following program was used: • 1—Equilibration at 50% RH • 2—50% to 2%. (50%, 40%, 30%, 20%, 10%, and 2%) • 3—2% to 95% (2%, 10%, 20%, 30%, 40%, 50%, 60%, 70%, 80%, 90%, 95%) • 4—95% to 2% (95%, 80%, 70%, 60%, 50%, 40%, 30%, 20%, 10%, 2%) • 5—2% to 50% (2%, 10%, 20%, 30%, 40%, 50%)

The next series deals with EGFR mutant NSCLC. As to conditions: NSCLC patients; cited from earlier work.

In the case of `CO[C@@H]1CCN(c2nccc(Nc3cc4c(C(C)C)ccc(N5C[C@H](CS(C)(=O)=O)[C@H]5C)c4cn3)n2)C[C@@H]1F` [1:0.5 Compound (I) Semi-Succinate], in series [1], the DVS mass change is 7.1 wt. %.
Consider `CO[C@@H]1CCN(c2nccc(Nc3cc4c(C(C)C)ccc(N5C[C@H](CS(C)(=O)=O)[C@H]5C)c4cn3)n2)C[C@@H]1F` [Compound (I) Freebase Form B], for which the DVS mass change in series [1] was 2.1 wt. %.
Take `C=CC(=O)Nc1cc(Nc2nccc(-c3cn(C)c4ccccc34)n2)c(OC)cc1N(C)CCN(C)C` [osimertinib]: the “time within which resistance mediated by exon 20 C797 mutation (often C797S) usually develops” value in the series with EGFR mutant NSCLC is at most 10 months.
